# Source: patent US20250340557A1, “PYRIMIDINE DERIVATIVE” (ASKA PHARMACEUTICAL CO., LTD., priority 2022, published 2025)
# Target: T1, human mPGES-1 (Homo sapiens, UniProt O14684)
# T1 construct: made in house; host or cells: COS-1 cells (transient transfection; microsomal fraction used as enzyme)
# T1 sequence (O14684 1-152): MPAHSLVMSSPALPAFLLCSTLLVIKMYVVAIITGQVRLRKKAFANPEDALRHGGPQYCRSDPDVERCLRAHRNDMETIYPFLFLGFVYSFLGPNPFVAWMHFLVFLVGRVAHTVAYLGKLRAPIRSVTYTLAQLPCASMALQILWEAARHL
# Assay: Test for mPGES-1 inhibitory activity (microsomal enzyme, PGE2 EIA)
# Format: biochemical
# Conditions: microsomes from COS-1 cells transfected with human mPGES-1 cDNA; substrate PGH2 1 μM; 4° C., 4 minutes; PGE2 measured by EIA; read-out: h mPGES1 IC50
# In short: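 Enzyme source was microsomes from COS-1 cells transiently expressing human mPGES-1, in sodium phosphate pH 7.2 with 2.5 mM GSH, 1 mM EDTA and 2% DMSO final. After a 15 min preincubation with compound at 4 °C, 1 μM PGH2 (final) reacted for 4 min at 4 °C.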
row,Compound,IC50 [nM]
1,"Cc1nc(-c2c(C(F)(F)F)ccc(CNC(=O)[C@H]3CC[C@H](OCc4ccc(Cl)cc4F)CC3)c2F)[nH]c(=O)c1F [Example 128, trans-4-[(4-chloro-2-fluorobenzyl)oxy]-N-[2-fluoro-3-(5-fluoro-4-methyl-6-oxo-1,6-dihydropyrimidin-2-yl)-4-(trifluoromethyl)benzyl]cyclohexane-1-carboxamide]",13
2,"CCc1cc(=O)[nH]c(-c2c(C(F)(F)F)ccc(CNC(=O)[C@H]3CC[C@H](OCc4ccc(F)cc4F)CC3)c2F)n1 [Example 129, trans-4-[(2,4-difluorobenzyl)oxy]-N-[3-(4-ethyl-6-oxo-1,6-dihydropyrimidin-2-yl)-2-fluoro-4-(trifluoromethyl)benzyl]cyclohexane-1-carboxamide]",25
3,"CCc1nc(-c2c(C(F)(F)F)ccc(CNC(=O)[C@H]3CC[C@H](OCc4ccc(F)cc4F)CC3)c2F)[nH]c(=O)c1F [Example 132, trans-4-[(2,4-difluorobenzyl)oxy]-N-[3-(4-ethyl-5-fluoro-6-oxo-1,6-dihydropyrimidin-2-yl)-2-fluoro-4-(trifluoromethyl)benzyl]cyclohexane-1-carboxamide]",21
4,"CCc1nc(-c2c(C(F)(F)F)ccc(CNC(=O)[C@H]3CC[C@H](OCc4ccc(F)c(F)c4)CC3)c2F)[nH]c(=O)c1F [Example 133, trans-4-[(3,4-difluorobenzyl)oxy]-N-[3-(4-ethyl-5-fluoro-6-oxo-1,6-dihydropyrimidin-2-yl)-2-fluoro-4-(trifluoromethyl)benzyl]cyclohexane-1-carboxamide]",27
5,"O=c1cc(C(F)(F)F)nc(-c2c(C(F)(F)F)ccc(CNC(=O)[C@H]3C[C@@H](OCc4ccccc4C(F)(F)F)C3)c2F)[nH]1 [Example 143, cis-N-{2-fluoro-3-[6-oxo-4-(trifluoromethyl)-1,6-dihydropyrimidin-2-yl]-4-(trifluoromethyl)benzyl}-3-{[2-(trifluoromethyl)benzyl]oxy}cyclobutane-1-carboxamide]",28

# Continued, values first:
row,IC50 [nM],Compound
1,< 1,"Cc1nc(-c2c(C(F)(F)F)ccc(CNC(=O)[C@H]3CC[C@H](OCc4ccc(F)cc4F)CC3)c2F)[nH]c(=O)c1F [Example 126, trans-4-[(2,4-difluorobenzyl)oxy]-N-[2-fluoro-3-(5-fluoro-4-methyl-6-oxo-1,6-dihydropyrimidin-2-yl)-4-(trifluoromethyl)benzyl]cyclohexane-1-carboxamide]"
2,< 1,"Cc1nc(-c2c(C(F)(F)F)ccc(CNC(=O)[C@H]3CC[C@H](OCc4ccc(F)c(F)c4)CC3)c2F)[nH]c(=O)c1F [Example 127, trans-4-[(3,4-difluorobenzyl)oxy]-N-[2-fluoro-3-(5-fluoro-4-methyl-6-oxo-1,6-dihydropyrimidin-2-yl)-4-(trifluoromethyl)benzyl]cyclohexane-1-carboxamide]"
3,< 1,"Cc1nc(-c2c(C(F)(F)F)ccc(CNC(=O)[C@H]3CC[C@H](OCc4cccc(C(F)(F)F)c4)CC3)c2F)[nH]c(=O)c1F [Example 130, trans-N-[2-fluoro-3-(5-fluoro-4-methyl-6-oxo-1,6-dihydropyrimidin-2-yl)-4-(trifluoromethyl)benzyl]-4-{[3-(trifluoromethyl)benzyl]oxy}cyclohexane-1-carboxamide]"
4,< 1,"Cc1nc(-c2c(C(F)(F)F)ccc(CNC(=O)[C@H]3CC[C@H](OCc4cc(F)cc(Cl)c4)CC3)c2F)[nH]c(=O)c1F [Example 131, trans-4-[(3-chloro-5-fluorobenzyl)oxy]-N-[2-fluoro-3-(5-fluoro-4-methyl-6-oxo-1,6-dihydropyrimidin-2-yl)-4-(trifluoromethyl)benzyl]cyclohexane-1-carboxamide]"
5,< 10,"O=c1cc(C(F)(F)F)nc(-c2c(C(F)(F)F)ccc(CNC(=O)[C@H]3C[C@H](OCc4ccccc4)C3)c2F)[nH]1 [Example 134, trans-3-(benzyloxy)-N-{2-fluoro-3-[6-oxo-4-(trifluoromethyl)-1,6-dihydropyrimidin-2-yl]-4-(trifluoromethyl)benzyl}cyclobutane-1-carboxamide]"
6,6.4,"O=c1cc(C(F)(F)F)nc(-c2c(C(F)(F)F)ccc(CNC(=O)[C@H]3C[C@@H](OCc4ccccc4)C3)c2F)[nH]1 [Example 135, cis-3-(benzyloxy)-N-{2-fluoro-3-[6-oxo-4-(trifluoromethyl)-1,6-dihydropyrimidin-2-yl]-4-(trifluoromethyl)benzyl}cyclobutane-1-carboxamide]"
7,2,"O=c1cc(C(F)(F)F)nc(-c2c(C(F)(F)F)ccc(CNC(=O)[C@H]3C[C@H](OCc4ccccc4Cl)C3)c2F)[nH]1 [Example 136, trans-3-[(2-chlorobenzyl)oxy]-N-{2-fluoro-3-[6-oxo-4-(trifluoromethyl)-1,6-dihydropyrimidin-2-yl]-4-(trifluoromethyl)benzyl}cyclobutane-1-carboxamide]"
8,2.9,"O=c1cc(C(F)(F)F)nc(-c2c(C(F)(F)F)ccc(CNC(=O)[C@H]3C[C@@H](OCc4ccccc4Cl)C3)c2F)[nH]1 [Example 137, cis-3-[(2-chlorobenzyl)oxy]-N-{2-fluoro-3-[6-oxo-4-(trifluoromethyl)-1,6-dihydropyrimidin-2-yl]-4-(trifluoromethyl)benzyl}cyclobutane-1-carboxamide]"
9,< 1,"O=c1cc(C(F)(F)F)nc(-c2c(C(F)(F)F)ccc(CNC(=O)[C@H]3C[C@H](OCc4cccc(Cl)c4)C3)c2F)[nH]1 [Example 138, trans-3-[(3-chlorobenzyl)oxy]-N-{2-fluoro-3-[6-oxo-4-(trifluoromethyl)-1,6-dihydropyrimidin-2-yl]-4-(trifluoromethyl)benzyl}cyclobutane-1-carboxamide]"
10,1,"O=c1cc(C(F)(F)F)nc(-c2c(C(F)(F)F)ccc(CNC(=O)[C@H]3C[C@H](OCc4ccc(Cl)cc4)C3)c2F)[nH]1 [Example 140, trans-3-[(4-chlorobenzyl)oxy]-N-{2-fluoro-3-[6-oxo-4-(trifluoromethyl)-1,6-dihydropyrimidin-2-yl]-4-(trifluoromethyl)benzyl}cyclobutane-1-carboxamide]"
11,< 1,"O=c1cc(C(F)(F)F)nc(-c2c(C(F)(F)F)ccc(CNC(=O)[C@H]3C[C@@H](OCc4ccc(Cl)cc4)C3)c2F)[nH]1 [Example 141, cis-3-[(4-chlorobenzyl)oxy]-N-{2-fluoro-3-[6-oxo-4-(trifluoromethyl)-1,6-dihydropyrimidin-2-yl]-4-(trifluoromethyl)benzyl}cyclobutane-1-carboxamide]"
12,< 1,"O=c1cc(C(F)(F)F)nc(-c2c(C(F)(F)F)ccc(CNC(=O)[C@H]3C[C@H](OCc4ccccc4C(F)(F)F)C3)c2F)[nH]1 [Example 142, trans-N-{2-fluoro-3-[6-oxo-4-(trifluoromethyl)-1,6-dihydropyrimidin-2-yl]-4-(trifluoromethyl)benzyl}-3-{[2-(trifluoromethyl)benzyl]oxy}cyclobutane-1-carboxamide]"
13,< 1,"O=c1cc(C(F)(F)F)nc(-c2c(C(F)(F)F)ccc(CNC(=O)[C@H]3C[C@H](OCc4cccc(C(F)(F)F)c4)C3)c2F)[nH]1 [Example 144, trans-N-{2-fluoro-3-[6-oxo-4-(trifluoromethyl)-1,6-dihydropyrimidin-2-yl]-4-(trifluoromethyl)benzyl}-3-{[3-(trifluoromethyl)benzyl]oxy}cyclobutane-1-carboxamide]"

# Same assay, conditions: microsomes of COS-1 cells transfected with human mPGES-1 cDNA; PGH2 1 μM; 4° C., 4 minutes; PGE2 by EIA; read-out: h mPGES1 IC50
row,IC50 [nM],Compound
1,98,"O=c1cc(C(F)(F)F)nc(-c2c(C(F)(F)F)ccc(CNC(=O)[C@H]3C[C@@H](OCc4cccc(C(F)(F)F)c4)C3)c2F)[nH]1 [Example 145, cis-N-{2-fluoro-3-[6-oxo-4-(trifluoromethyl)-1,6-dihydropyrimidin-2-yl]-4-(trifluoromethyl)benzyl}-3-{[3-(trifluoromethyl)benzyl]oxy}cyclobutane-1-carboxamide]"
2,2.1,"O=c1cc(C(F)(F)F)nc(-c2c(C(F)(F)F)ccc(CNC(=O)[C@H]3C[C@H](OCc4ccc(C(F)(F)F)cc4)C3)c2F)[nH]1 [Example 146, trans-N-{2-fluoro-3-[6-oxo-4-(trifluoromethyl)-1,6-dihydropyrimidin-2-yl]-4-(trifluoromethyl)benzyl}-3-{[4-(trifluoromethyl)benzyl]oxy}cyclobutane-1-carboxamide]"
3,< 1,"O=c1cc(C(F)(F)F)nc(-c2c(C(F)(F)F)ccc(CNC(=O)[C@H]3C[C@@H](OCc4ccc(C(F)(F)F)cc4)C3)c2F)[nH]1 [Example 147, cis-N-{2-fluoro-3-[6-oxo-4-(trifluoromethyl)-1,6-dihydropyrimidin-2-yl]-4-(trifluoromethyl)benzyl}-3-{[4-(trifluoromethyl)benzyl]oxy}cyclobutane-1-carboxamide]"
4,< 1,"O=c1cc(C(F)(F)F)nc(-c2c(C(F)(F)F)ccc(CNC(=O)[C@H]3C[C@H](OCc4ccc(F)cc4F)C3)c2F)[nH]1 [Example 148, trans-3-[(2,4-difluorobenzyl)oxy]-N-{2-fluoro-3-[6-oxo-4-(trifluoromethyl)-1,6-dihydropyrimidin-2-yl]-4-(trifluoromethyl)benzyl}cyclobutane-1-carboxamide]"
5,< 1,"O=c1cc(C(F)(F)F)nc(-c2c(C(F)(F)F)ccc(CNC(=O)[C@H]3C[C@H](OCc4ccc(Cl)cc4F)C3)c2F)[nH]1 [Example 149, trans-3-[(4-chloro-2-fluorobenzyl)oxy]-N-{2-fluoro-3-[6-oxo-4-(trifluoromethyl)-1,6-dihydropyrimidin-2-yl]-4-(trifluoromethyl)benzyl}cyclobutane-1-carboxamide]"
